{
  "source": "patent US5496823A",
  "about": "“Pharmaceutical composition for increasing bladder capacity” (Hoechst Japan Limited, priority 1991, dated 1996)",
  "key": {"[1]": {"test_system": "urination-reflexing constriction of the bladder", "assay": "urination-reflexing constriction of the bladder (cystometrogram) in anesthetized rats, intravenous administration", "assay_type": "in vivo, SD male rats", "conditions": "for Bladder capacity, First / Bladder capacity, Second / Urination constriction pressure, First / Urination constriction pressure, Second / Urination threshold pressure, First / Urination threshold pressure, Second: relative level, pre-drug value = 1, mean ± SD", "excerpt": "(§1) Effects of test drugs on urination-reflexing constriction of the bladder in anesthetized rats were examined according to Morikawa, et al. [in Oyo Yakuri/Pharmacometrics, Vol. 37, No. 1, pages 27-37, (1989)]. In the following examples, the bladder capacity designates the time from a urination to the next urination (urination interval), urination threshold pressure designates intracystic pressure) immediately prior to initiation of urination constriction and urination constriction pressure designates maximum internal pressure on urination constriction. Figures in the below table indicate relative level from the first and second reactions after administration of a drug taking the measured value before administration of the drug as 1 for bladder capacity (min.), urination threshold pressure (mmHg) and urination constriction pressure (mmHg), respectively.\n(§2) Groups of 4-6 SD male rats were used and each animal was subjected to laparotomy under anesthesia with urethan, ligature around the ureter and then exposure of the bladder, on the top of which was perforated with a small opening, through which a cannula with a three-way step cock was inserted.\n(§3) One of the three-way stop cock was connected to a syringe for continuously introducing a physiological saline solution and another to a pressure transducer for the measurement of intrasystic pressure.\n(§4) A physiological saline solution was introduced into the bladder at a rate of 55 μl per min., and changes in intracystic pressure were recorded until urination. From the intracystic pressure curve were determined bladder capacity, urination threshold pressure and urination constriction pressure to examine the action of the introduction of physiological saline solution.\nThe drug was given via a polyethylene tube inserted into the femoral vein. […]"}, "[2]": {"conditions": "Japanese Patent Publication No. 33120/1977; cited from earlier work"}, "[3]": {"test_system": "urination-reflexing constriction of the bladder", "assay": "urination-reflexing constriction of the bladder (cystometrogram) in anesthetized rats, intraduodenal administration", "assay_type": "in vivo, SD male rats", "conditions": "relative level, pre-drug value = 1, mean ± SD", "excerpt": "as §1, §2, §3, §4\nGroups of 4-5 SD male rats were fasted overnight and subjected to the same experimental procedures as in Example 1. The drug was given via a polyethylene tube inserted into the duodenum."}},
  "data": [
    {"smiles": "CCOCn1cnc2c1c(=O)n(CCCCC(C)(C)O)c(=O)n2C", "note": "[Compound VI, 3,7-dihydro-3-methyl-1-(5-hydroxy-5-methylhexyl)-7-ethoxymethyl-1H-purine-2,6-dione]", "values": [
      {"measurement": "Bladder capacity, First", "setting": "[1]; Table 3, 20 mg/kg i.v., n=5", "result": "1.8 ± 0.9"},
      {"measurement": "Bladder capacity, Second", "setting": "[1]; Table 3, 20 mg/kg i.v., n=5", "result": "1.4 ± 1.0"},
      {"measurement": "Urination constriction pressure, First", "setting": "[1]; Table 3, 20 mg/kg i.v., n=5", "result": "1.0 ± 0.1"},
      {"measurement": "Urination constriction pressure, Second", "setting": "[1]; Table 3, 20 mg/kg i.v., n=5", "result": "1.0 ± 0.1"},
      {"measurement": "Urination threshold pressure, First", "setting": "[1]; Table 3, 20 mg/kg i.v., n=5", "result": "1.3 ± 0.9"},
      {"measurement": "Urination threshold pressure, Second", "setting": "[1]; Table 3, 20 mg/kg i.v., n=5", "result": "1.0 ± 0.4"}
    ]},
    {"smiles": "CCCn1cnc2c1c(=O)n(CCCCC(C)=O)c(=O)n2C", "note": "[propentofylline, 3,7-dihydro-3-methyl-1-(5-oxohexyl)-7-propyl-1H-purine-2,6-dione]", "values": [
      {"measurement": "Bladder capacity, First", "setting": "[1]; 0.2 mg/kg i.v., n=5", "result": "1.2 ± 0.8"},
      {"measurement": "Bladder capacity, Second", "setting": "[1]; 0.2 mg/kg i.v., n=5", "result": "1.1 ± 0.4"},
      {"measurement": "Urination constriction pressure, First", "setting": "[1]; 0.2 mg/kg i.v., n=5", "result": "1.0 ± 0.1"},
      {"measurement": "Urination constriction pressure, Second", "setting": "[1]; 0.2 mg/kg i.v., n=5", "result": "0.9 ± 0.1"},
      {"measurement": "Urination threshold pressure, First", "setting": "[1]; 0.2 mg/kg i.v., n=5", "result": "1.2 ± 0.5"},
      {"measurement": "Urination threshold pressure, Second", "setting": "[1]; 0.2 mg/kg i.v., n=5", "result": "1.0 ± 0.3"},
      {"measurement": "Bladder capacity, First", "setting": "[1]; 1 mg/kg i.v., n=5", "result": "2.5 ± 1.9"},
      {"measurement": "Bladder capacity, Second", "setting": "[1]; 1 mg/kg i.v., n=5", "result": "0.7 ± 0.2"},
      {"measurement": "Urination constriction pressure, First", "setting": "[1]; 1 mg/kg i.v., n=5", "result": "1.0 ± 0.1"},
      {"measurement": "Urination constriction pressure, Second", "setting": "[1]; 1 mg/kg i.v., n=5", "result": "1.1 ± 0.2"},
      {"measurement": "Urination threshold pressure, First", "setting": "[1]; 1 mg/kg i.v., n=5", "result": "1.1 ± 0.1"},
      {"measurement": "Urination threshold pressure, Second", "setting": "[1]; 1 mg/kg i.v., n=5", "result": "1.1 ± 0.2"},
      {"measurement": "Bladder capacity, Second", "setting": "[1]; 5 mg/kg i.v., n=6", "result": "1.0 ± 0.5"},
      {"measurement": "Urination constriction pressure, First", "setting": "[1]; 5 mg/kg i.v., n=6", "result": "1.0 ± 0.1"},
      {"measurement": "Urination constriction pressure, Second", "setting": "[1]; 5 mg/kg i.v., n=6", "result": "1.0 ± 0.2"},
      {"measurement": "Urination threshold pressure, First", "setting": "[1]; 5 mg/kg i.v., n=6", "result": "1.5 ± 0.4"},
      {"measurement": "Urination threshold pressure, Second", "setting": "[1]; 5 mg/kg i.v., n=6", "result": "1.2 ± 0.6"},
      {"measurement": "Bladder capacity, First", "setting": "[1]; 5 mg/kg i.v., n=6, P < 0.05", "result": "4.1 ± 2.6"},
      {"measurement": "Bladder capacity, Second", "setting": "[1]; 10 mg/kg i.v., n=5", "result": "0.9 ± 0.5"},
      {"measurement": "Urination constriction pressure, First", "setting": "[1]; 10 mg/kg i.v., n=5", "result": "1.0 ± 0.2"},
      {"measurement": "Urination constriction pressure, Second", "setting": "[1]; 10 mg/kg i.v., n=5", "result": "1.0 ± 0.2"},
      {"measurement": "Urination threshold pressure, Second", "setting": "[1]; 10 mg/kg i.v., n=5", "result": "1.1 ± 0.3"},
      {"measurement": "Urination threshold pressure, First", "setting": "[1]; 10 mg/kg i.v., n=5, P < 0.01", "result": "2.1 ± 0.7"},
      {"measurement": "Bladder capacity, First", "setting": "[1]; 10 mg/kg i.v., n=5, P < 0.05", "result": "3.5 ± 1.1"},
      {"measurement": "Bladder capacity, Second", "setting": "[1]; 20 mg/kg i.v., n=5", "result": "1.0 ± 0.8"},
      {"measurement": "Urination constriction pressure, First", "setting": "[1]; 20 mg/kg i.v., n=5", "result": "1.0 ± 0.1"},
      {"measurement": "Urination constriction pressure, Second", "setting": "[1]; 20 mg/kg i.v., n=5", "result": "1.0 ± 0.1"},
      {"measurement": "Urination threshold pressure, Second", "setting": "[1]; 20 mg/kg i.v., n=5", "result": "1.5 ± 0.8"},
      {"measurement": "Urination threshold pressure, First", "setting": "[1]; 20 mg/kg i.v., n=5, P < 0.01", "result": "2.5 ± 0.8"},
      {"measurement": "Bladder capacity, First", "setting": "[1]; 20 mg/kg i.v., n=5, P < 0.05", "result": "4.9 ± 3.2"},
      {"measurement": "constrictive force of the bladder (in words)", "setting": "[1]; animal experiments, summary", "result": "almost no influence upon constrictive force of the bladder"},
      {"measurement": "substantial bladder capacity / volume (in words)", "setting": "[1]; animal experiments, summary", "result": "increased substantial bladder capacity"},
      {"measurement": "urination intervals (in words)", "setting": "[1]; animal experiments, summary", "result": "prolonged urination intervals"},
      {"measurement": "urination threshold pressure (in words)", "setting": "[1]; animal experiments, summary", "result": "increased urination threshold pressure"},
      {"measurement": "action on vertebral artery (in words)", "setting": "[2]", "result": "specifically active on vertebral artery"},
      {"measurement": "blood flow during cerebral circulation (in words)", "setting": "[2]", "result": "increase blood flow highly selectively during cerebral circulation"},
      {"measurement": "Bladder capacity, First", "setting": "[3]; 3 mg/kg intraduodenal, n=4", "result": "1.1 ± 0.2"},
      {"measurement": "Bladder capacity, Second", "setting": "[3]; 3 mg/kg intraduodenal, n=4", "result": "1.1 ± 0.3"},
      {"measurement": "Urination constriction pressure, First", "setting": "[3]; 3 mg/kg intraduodenal, n=4", "result": "1.1 ± 0.1"},
      {"measurement": "Urination constriction pressure, Second", "setting": "[3]; 3 mg/kg intraduodenal, n=4", "result": "1.1 ± 0.2"},
      {"measurement": "Urination threshold pressure, First", "setting": "[3]; 3 mg/kg intraduodenal, n=4", "result": "1.0 ± 0.2"},
      {"measurement": "Urination threshold pressure, Second", "setting": "[3]; 3 mg/kg intraduodenal, n=4", "result": "1.0 ± 0.2"},
      {"measurement": "Bladder capacity, First", "setting": "[3]; 10 mg/kg intraduodenal, n=4", "result": "2.7 ± 1.8"},
      {"measurement": "Bladder capacity, Second", "setting": "[3]; 10 mg/kg intraduodenal, n=4", "result": "1.0 ± 1.0"},
      {"measurement": "Urination constriction pressure, First", "setting": "[3]; 10 mg/kg intraduodenal, n=4", "result": "1.0 ± 0.1"},
      {"measurement": "Urination constriction pressure, Second", "setting": "[3]; 10 mg/kg intraduodenal, n=4", "result": "0.9 ± 0.1"},
      {"measurement": "Urination threshold pressure, First", "setting": "[3]; 10 mg/kg intraduodenal, n=4", "result": "1.3 ± 0.3"},
      {"measurement": "Urination threshold pressure, Second", "setting": "[3]; 10 mg/kg intraduodenal, n=4", "result": "1.3 ± 0.5"},
      {"measurement": "Bladder capacity, First", "setting": "[3]; 30 mg/kg intraduodenal, n=5", "result": "2.7 ± 1.6"},
      {"measurement": "Bladder capacity, Second", "setting": "[3]; 30 mg/kg intraduodenal, n=5", "result": "0.8 ± 0.6"},
      {"measurement": "Urination constriction pressure, First", "setting": "[3]; 30 mg/kg intraduodenal, n=5", "result": "0.9 ± 0.1"},
      {"measurement": "Urination constriction pressure, Second", "setting": "[3]; 30 mg/kg intraduodenal, n=5", "result": "1.0 ± 0.1"},
      {"measurement": "Urination threshold pressure, First", "setting": "[3]; 30 mg/kg intraduodenal, n=5", "result": "1.6 ± 0.9"},
      {"measurement": "Urination threshold pressure, Second", "setting": "[3]; 30 mg/kg intraduodenal, n=5", "result": "1.4 ± 0.9"},
      {"measurement": "Bladder capacity, Second", "setting": "[3]; 50 mg/kg intraduodenal, n=5", "result": "0.6 ± 0.2"},
      {"measurement": "Urination constriction pressure, First", "setting": "[3]; 50 mg/kg intraduodenal, n=5", "result": "1.0 ± 0.1"},
      {"measurement": "Urination constriction pressure, Second", "setting": "[3]; 50 mg/kg intraduodenal, n=5", "result": 1.0},
      {"measurement": "Urination threshold pressure, Second", "setting": "[3]; 50 mg/kg intraduodenal, n=5", "result": "1.4 ± 0.7"},
      {"measurement": "Bladder capacity, First", "setting": "[3]; 50 mg/kg intraduodenal, n=5, P < 0.01", "result": "4.3 ± 2.1"},
      {"measurement": "Urination threshold pressure, First", "setting": "[3]; 50 mg/kg intraduodenal, n=5, P < 0.05", "result": "1.7 ± 0.6"}
    ]}
  ]
}
